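Five concentrations, 48 hours, 96-well plates. GI50 is the concentration that inhibits growth by half. At the TGI there is no net growth.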
Tests used:
Assay in all cases: DTP human tumour cell line panel, 48 h
UACC-62 melanoma = test system: UACC-62 melanoma
HCC-2998 colon = test system: HCC-2998 colon
CCRF-CEM leukemia = test system: CCRF-CEM leukemia
RPMI-8226 leukemia = test system: RPMI-8226 leukemia
HL-60(TB) leukemia = test system: HL-60(TB) leukemia
UO-31 renal = test system: UO-31 renal
SK-MEL-5 melanoma = test system: SK-MEL-5 melanoma
U251 CNS = test system: U251 CNS
SW-620 colon = test system: SW-620 colon
SN12C renal = test system: SN12C renal
MDA-MB-231 breast = test system: MDA-MB-231 breast
NCI-H460 lung = test system: NCI-H460 lung
HT29 colon = test system: HT29 colon
KM12 colon = test system: KM12 colon
SF-268 CNS = test system: SF-268 CNS
K-562 leukemia = test system: K-562 leukemia
OVCAR-4 ovarian = test system: OVCAR-4 ovarian
786-0 renal = test system: 786-0 renal
OVCAR-3 ovarian = test system: OVCAR-3 ovarian
HCT-116 colon = test system: HCT-116 colon
SK-OV-3 ovarian = test system: SK-OV-3 ovarian
LOX IMVI melanoma = test system: LOX IMVI melanoma
SR leukemia = test system: SR leukemia
RXF 393 renal = test system: RXF 393 renal
MOLT-4 leukemia = test system: MOLT-4 leukemia
NCI/ADR-RES ovarian = test system: NCI/ADR-RES ovarian
HOP-92 NSCLC = test system: HOP-92 NSCLC
MCF7 breast = test system: MCF7 breast
HOP-62 NSCLC = test system: HOP-62 NSCLC
CAKI-1 renal = test system: CAKI-1 renal
SF-539 CNS = test system: SF-539 CNS
DU-145 prostate = test system: DU-145 prostate
T-47D breast = test system: T-47D breast
PC-3 prostate = test system: PC-3 prostate
OVCAR-8 ovarian = test system: OVCAR-8 ovarian

Q: How did the GI50 (UACC-62 melanoma) turn out when `Cc1nc2ccccc2c(/C=C/c2ccccc2)c1C(=O)/C=C/c1ccc(Cl)cc1` was run?
A: 1.5 µM

Q: What about the TGI (UACC-62 melanoma) of the same compound?
A: 3.25 µM

Q: What about the GI50 (HCC-2998 colon) of the same compound?
A: 1.81 µM

Q: What about the TGI (HCC-2998 colon) of the same compound?
A: 3.35 µM

Q: What about the GI50 (CCRF-CEM leukemia) of the same compound?
A: 0.481 µM

Q: What about the TGI (CCRF-CEM leukemia) of the same compound?
A: 5.24 µM

Q: What about the GI50 (RPMI-8226 leukemia) of the same compound?
A: 0.784 µM

Q: And the TGI (RPMI-8226 leukemia)?
A: 3.58 µM

Q: And the GI50 (HL-60(TB) leukemia)?
A: 0.871 µM

Q: And the TGI (HL-60(TB) leukemia)?
A: 3.12 µM

Q: And the GI50 (UO-31 renal)?
A: 1.28 µM

Q: And the TGI (UO-31 renal)?
A: 2.55 µM

Q: What about the GI50 (SK-MEL-5 melanoma) of the same compound?
A: 1.62 µM

Q: What about the TGI (SK-MEL-5 melanoma) of the same compound?
A: 3.04 µM

Q: What about the GI50 (U251 CNS) of the same compound?
A: 1.51 µM

Q: What about the TGI (U251 CNS) of the same compound?
A: 2.88 µM

Q: And the GI50 (SW-620 colon)?
A: 1.71 µM

Q: What about the TGI (SW-620 colon) of the same compound?
A: 5.72 µM

Q: And the GI50 (SN12C renal)?
A: 1.71 µM

Q: What about the TGI (SN12C renal) of the same compound?
A: 4.39 µM

Q: What about the GI50 (MDA-MB-231 breast) of the same compound?
A: 1.46 µM

Q: And the TGI (MDA-MB-231 breast)?
A: 4 µM

Q: What about the GI50 (NCI-H460 lung) of the same compound?
A: 1.51 µM

Q: What about the TGI (NCI-H460 lung) of the same compound?
A: 3.29 µM

Q: And the GI50 (HT29 colon)?
A: 0.9 µM

Q: And the TGI (HT29 colon)?
A: 6.36 µM

Q: And the GI50 (KM12 colon)?
A: 1.86 µM

Q: And the TGI (KM12 colon)?
A: 4.78 µM

Q: And the GI50 (SF-268 CNS)?
A: 3.15 µM

Q: What about the TGI (SF-268 CNS) of the same compound?
A: > 100 µM

Q: And the GI50 (K-562 leukemia)?
A: 0.868 µM

Q: And the TGI (K-562 leukemia)?
A: 4.87 µM

Q: What about the GI50 (OVCAR-4 ovarian) of the same compound?
A: 2.36 µM

Q: And the TGI (OVCAR-4 ovarian)?
A: > 100 µM

Q: What about the GI50 (786-0 renal) of the same compound?
A: 1.58 µM

Q: What about the TGI (786-0 renal) of the same compound?
A: 2.99 µM

Q: What about the GI50 (OVCAR-3 ovarian) of the same compound?
A: 1.48 µM

Q: And the TGI (OVCAR-3 ovarian)?
A: 2.91 µM

Q: And the GI50 (HCT-116 colon)?
A: 0.485 µM

Q: What about the TGI (HCT-116 colon) of the same compound?
A: 1.81 µM

Q: What about the GI50 (SK-OV-3 ovarian) of the same compound?
A: > 100 µM

Q: What about the TGI (SK-OV-3 ovarian) of the same compound?
A: > 100 µM

Q: What about the GI50 (LOX IMVI melanoma) of the same compound?
A: 1.23 µM

Q: What about the TGI (LOX IMVI melanoma) of the same compound?
A: 2.49 µM

Q: What about the GI50 (SR leukemia) of the same compound?
A: 0.54 µM

Q: And the TGI (SR leukemia)?
A: 3.75 µM

Q: What about the GI50 (RXF 393 renal) of the same compound?
A: 1.28 µM

Q: And the TGI (RXF 393 renal)?
A: 2.64 µM

Q: What about the GI50 (MOLT-4 leukemia) of the same compound?
A: 1.09 µM

Q: And the TGI (MOLT-4 leukemia)?
A: 6.49 µM

Q: And the GI50 (NCI/ADR-RES ovarian)?
A: 1.81 µM

Q: And the TGI (NCI/ADR-RES ovarian)?
A: 4.88 µM

Q: `COc1cc(/C=C2\CCCC3=C2N=C2SC(C)=CN2C3c2cc(OC)c(OC)c(OC)c2)cc(OC)c1OC` (stereo unspecified) was tested. Which GI50 (HOP-92 NSCLC) did it give?
A: 1.46 µM

Q: What about the TGI (HOP-92 NSCLC) of the same compound?
A: 4.27 µM

Q: And the GI50 (MCF7 breast)?
A: 2.98 µM

Q: And the TGI (MCF7 breast)?
A: > 100 µM

Q: And the GI50 (CCRF-CEM leukemia)?
A: 0.615 µM

Q: And the TGI (CCRF-CEM leukemia)?
A: 4.14 µM

Q: And the GI50 (RPMI-8226 leukemia)?
A: 0.391 µM

Q: What about the TGI (RPMI-8226 leukemia) of the same compound?
A: 2.11 µM

Q: What about the GI50 (HOP-62 NSCLC) of the same compound?
A: 1.89 µM

Q: What about the TGI (HOP-62 NSCLC) of the same compound?
A: > 100 µM

Q: And the GI50 (CAKI-1 renal)?
A: 2.55 µM

Q: What about the TGI (CAKI-1 renal) of the same compound?
A: > 100 µM

Q: And the GI50 (SF-539 CNS)?
A: 3.09 µM

Q: What about the TGI (SF-539 CNS) of the same compound?
A: > 100 µM

Q: What about the GI50 (DU-145 prostate) of the same compound?
A: 2.76 µM

Q: And the TGI (DU-145 prostate)?
A: > 100 µM

Q: What about the GI50 (SN12C renal) of the same compound?
A: 2.44 µM

Q: And the TGI (SN12C renal)?
A: > 100 µM

Q: And the GI50 (MDA-MB-231 breast)?
A: 2.88 µM

Q: What about the TGI (MDA-MB-231 breast) of the same compound?
A: > 100 µM

Q: What about the GI50 (T-47D breast) of the same compound?
A: 3.16 µM

Q: And the TGI (T-47D breast)?
A: > 100 µM

Q: What about the GI50 (HCT-116 colon) of the same compound?
A: 0.692 µM

Q: And the TGI (HCT-116 colon)?
A: 2.01 µM

Q: What about the GI50 (PC-3 prostate) of the same compound?
A: 2.19 µM

Q: And the TGI (PC-3 prostate)?
A: > 100 µM

Q: What about the GI50 (SR leukemia) of the same compound?
A: 0.399 µM

Q: And the TGI (SR leukemia)?
A: 2.01 µM

Q: And the GI50 (OVCAR-8 ovarian)?
A: 0.385 µM

Q: What about the TGI (OVCAR-8 ovarian) of the same compound?
A: 3.09 µM

Q: And the GI50 (MOLT-4 leukemia)?
A: 1.77 µM

Q: And the TGI (MOLT-4 leukemia)?
A: 6.43 µM

Q: What about the GI50 (NCI/ADR-RES ovarian) of the same compound?
A: 0.334 µM

Q: What about the TGI (NCI/ADR-RES ovarian) of the same compound?
A: > 100 µM

— PubChem BioAssay (NCI)
